Results as given in US20260130933A1, “PHARMACEUTICAL COMPOSITION FOR PREVENTION OR TREATMENT OF NEPHROPATHY AND/OR DIABETES MELLITUS, COMPRISING ENAVOGLIFLOZIN” (DAEWOONG PHARMACEUTICAL CO., LTD., priority 2022, published 2026).

Experiment: Example 3: phase 3 trial, enavogliflozin 0.3 mg vs dapagliflozin 10 mg once a day for 24 weeks added to metformin and gemigliptin in patients with type 2 diabetes (same endpoints, rescue drug)
Assay type: in vivo, human
Conditions: for Subjects achieving therapeutic glycemic response 1, %: response 1 = HbA1c change >0.5% or HbA1c <7%; for Subjects achieving therapeutic glycemic response 2, %: response 2 = HbA1c change >0.7% or HbA1c <7%; for Subjects achieving therapeutic glycemic response 3, %: response 3 = HbA1c change >1% or HbA1c <7%
Description: 1) when Metformin (≥1,000 mg/Day) was Administered at a Constant Dose for at Least 8 Weeks Prior to Pre-Visit (Pre-Screening) • Metformin (≥1,000 mg/day) and gemigliptin (50 mg/day) were co-administered during the 8-week stabilization period. […] 4) when Metformin (≥1,000 mg/Day) and Gemigliptin (50 mg/Day) were Co-Administered at Constant Doses for at Least 8 Weeks Prior to Pre-Visit (Prescreening) • Without a separate stabilization period, Pre-visit (pre-screening) was Visit 1 (screening).
Subjects who met the inclusion/exclusion criteria continued to receive metformin and gemigliptin while receiving a placebo of the clinical trial drug in a single-blind (subject-blinded) state for a 2-week run-in period.
Here, the randomized subjects were stratified according to the administration therapy (co-administration with two or less agents (one or two agents) or three or more agents) of a conventional hypoglycemic agent (before washout of another hypoglycemic agent) within 24 weeks prior to obtaining written informed consent and by an HbA1c value (<8% or ≥8%) at Visit 1 (screening) measured in the central laboratory.
The randomized subjects were administered two tablets of the clinical trial drug corresponding to each administration group once a day, and then visited the institution at weeks 6, 12, 18, and 24 during the 24-week administration period to conduct efficacy and safety assessments. In addition, during the clinical trial period, they were instructed to exercise regularly and control their diet without changing their daily life patterns.
• 1) Change in HbA1c at week 24 after administration of clinical trial drug compared to Visit 2 (randomization)
• 1) Change in HbA1c at each time point of weeks 6, 12, and 18 after administration of clinical trial drug compared to Visit 2 (randomization) • 2) Change in FPG at each time point of weeks 6, 12, 18, and 24 after administration of clinical trial drug compared to Visit 2 (randomization) • 3) Proportion of subjects achieving HbA1c<7% at each time point of weeks 6, 12, 18, and 24 after administration of clinical trial drug • 4) Proportion of subjects achieving HbA1c<6.5% at each time point of weeks 6, 12, 18, and 24 after administration of clinical trial drug • 5) Proportion of subjects achieving therapeutic response (HbA1c change (HbA1c at Visit 2—HbA1c at each evaluation time point)>0.5% or HbA1c<7% at each evaluation time point compared to Visit 2 (randomization)) at each time point of weeks 6, 12, 18, and 24 after administration of clinical trial drug • 6) Proportion of subjects achieving therapeutic response (HbA1c change (HbA1c at Visit 2—HbA1c at each evaluation time point)>0.7% or HbA1c<7% at each evaluation time point compared to Visit 2 (randomization)) at each time point of weeks 6, 12, 18, and 24 after administration of clinical trial drug • 7) Proportion of subjects achieving therapeutic response (HbA1c change (HbA1c at Visit 2—HbA1c at each evaluation time point)>1% or HbA1c<7% at each evaluation time point compared to Visit 2 (randomization)) at each time point of weeks 6, 12, 18, and 24 after administration of clinical trial drug

[1] = week 18, per-protocol set, enavogliflozin 0.3 mg, dapagliflozin 10 mg
[2] = week 24, modified per-protocol set 1, enavogliflozin 0.3 mg, dapagliflozin 10 mg
[3] = week 24, modified per-protocol set 2
[4] = week 24, modified per-protocol set 2, enavogliflozin 0.3 mg, dapagliflozin 10 mg
[5] = week 24, per-protocol set, enavogliflozin 0.3 mg, dapagliflozin 10 mg

CCOc1ccc(Cc2cc([C@@H]3O[C@H](CO)[C@@H](O)[C@H](O)[C@H]3O)ccc2Cl)cc1 [Dapagliflozin, reference compound]
body weight, Median [1]: 62.30 kg | Subjects achieving therapeutic glycemic response 1, % [1]: 82.93% | Subjects achieving therapeutic glycemic response 2, % [1]: 76.42% | Subjects achieving therapeutic glycemic response 3, % [1]: 70.73% | FPG change from baseline, LS mean (SE) (week 24): −23.72(1.78) mg/dL | HDL-C change from baseline, LS mean (SE) (week 24): 4.40(0.69) mg/dL | HOMA-IR change from baseline, LS mean (SE) (week 24): −0.93(0.11) | HOMA-β change from baseline, LS mean (SE) (week 24): 5.78(4.72) | HbA1c change from baseline, LS mean (SE) (week 24): −0.86(0.05) % p | HbA1c change from baseline, Mean (SD) (week 24): −0.89(0.65) % p | LDL-C change from baseline, LS mean (SE) (week 24): 3.12(1.85) mg/dL | UACR change from baseline, LS mean (SE) (week 24): −16.13 (3.84) g/kg | UGCR change from baseline, LS mean (SE) (week 24): 43.51(2.26) mg/mg | adiponectin change from baseline, LS mean (SE) (week 24): 0.92(0.35) μg/mL | body weight change from baseline, LS mean (SE) (week 24): −3.01(0.22) kg | diastolic blood pressure change from baseline, LS mean (SE) (week 24): −1.89(0.70) mmHg | fasting C-peptide change from baseline, LS mean (SE) (week 24): −0.08(0.02) ng/ml | leptin change from baseline, LS mean (SE) (week 24): −0.57(0.51) ng/mL | systolic blood pressure change from baseline, LS mean (SE) (week 24): −4.27(0.93) mmHg | total cholesterol change from baseline, LS mean (SE) (week 24): 5.57(2.03) mg/dL | triglyceride change from baseline, LS mean (SE) (week 24): −8.78(3.94) mg/dL | Proportion of subjects who received a rescue drug (week 24, FAS): 0.74% | Change from baseline in HDL-C, ANCOVA LS mean [2]: 4.40 mg/dL | Change from baseline in HDL-C, Mean [2]: 4.44 mg/dL | Change from baseline in HDL-C, Median [2]: 4.00 mg/dL | Change from baseline in LDL-C, ANCOVA LS mean [2]: 3.12 mg/dL | Change from baseline in LDL-C, Mean [2]: 2.72 mg/dL | Change from baseline in LDL-C, Median [2]: 1.50 mg/dL | Change from baseline in total cholesterol, ANCOVA LS mean [2]: 5.57 mg/dL | Change from baseline in total cholesterol, Mean [2]: 4.69 mg/dL | Change from baseline in total cholesterol, Median [2]: 3.00 mg/dL | Change from baseline in triglycerides, ANCOVA LS mean [2]: -8.78 mg/dL | Change from baseline in triglycerides, Mean [2]: -13.81 mg/dL | Change from baseline in triglycerides, Median [2]: -6.00 mg/dL | Fasting HDL-C, Mean [2]: 51.87 mg/dL | Fasting HDL-C, Median [2]: 50.50 mg/dL | Fasting LDL-C, Mean [2]: 80.13 mg/dL | Fasting LDL-C, Median [2]: 71.50 mg/dL | Fasting total cholesterol, Mean [2]: 148.49 mg/dL | Fasting triglycerides, Mean [2]: 118.68 mg/dL | Fasting triglycerides, Median [2]: 104.00 mg/dL | fasting Total cholesterol, Median [2]: 145.00 mg/dL | Change from baseline in diastolic blood pressure, ANCOVA LS mean [3]: −1.89 mmHg | Change from baseline in diastolic blood pressure, Mean [3]: −1.60 mmHg | Change from baseline in diastolic blood pressure, Median [3]: −2.00 mmHg | Diastolic blood pressure, Mean [3]: 72.27 mmHg | Diastolic blood pressure, Median [3]: 73.00 mmHg | Change from baseline in systolic blood pressure, ANCOVA LS mean [4]: −4.27 mmHg | Change from baseline in systolic blood pressure, Mean [4]: −3.74 mmHg | Change from baseline in systolic blood pressure, Median [4]: −4.00 mmHg | Systolic blood pressure, Mean [4]: 120.20 mmHg | Systolic blood pressure, Median [4]: 119.00 mmHg | Adiponectin, Mean (week 24, per-protocol set): 7.18 µg/mL | Adiponectin, Median (week 24, per-protocol set): 6.39 µg/mL | Change from baseline in HOMA-IR, ANCOVA LS mean (week 24, per-protocol set): −0.93 | Change from baseline in HOMA-IR, Mean (week 24, per-protocol set): −0.88 | Change from baseline in HOMA-IR, Median (week 24, per-protocol set): −0.70 | Change from baseline in HOMA-β, ANCOVA LS mean (week 24, per-protocol set): 5.78 | Change from baseline in HOMA-β, Mean (week 24, per-protocol set): 7.95 | Change from baseline in HOMA-β, Median (week 24, per-protocol set): 7.20 | Change from baseline in UACR, ANCOVA LS mean (week 24, per-protocol set): -16.13 g/kg | Change from baseline in UACR, Mean (week 24, per-protocol set): -11.12 g/kg | Change from baseline in UACR, Median (week 24, per-protocol set): -0.70 g/kg | Change from baseline in UGCR, ANCOVA LS mean (week 24, per-protocol set): 43.51 mg/mg | Change from baseline in UGCR, Mean (week 24, per-protocol set): 42.31 mg/mg | Change from baseline in UGCR, Median (week 24, per-protocol set): 42.35 mg/mg | Change from baseline in adiponectin, ANCOVA LS mean (week 24, per-protocol set): 0.92 µg/mL | Change from baseline in adiponectin, Mean (week 24, per-protocol set): 0.84 µg/mL | Change from baseline in adiponectin, Median (week 24, per-protocol set): 0.78 µg/mL | Change from baseline in leptin, ANCOVA LS mean (week 24, per-protocol set): -0.57 ng/mL | Change from baseline in leptin, Mean (week 24, per-protocol set): -0.74 ng/mL | Change from baseline in leptin, Median (week 24, per-protocol set): -0.46 ng/mL | HOMA-IR (insulin resistance), Mean (week 24, per-protocol set): 1.97 | HOMA-IR (insulin resistance), Median (week 24, per-protocol set): 1.55 | HOMA-β (beta-cell function), Mean (week 24, per-protocol set): 48.41 | HOMA-β (beta-cell function), Median (week 24, per-protocol set): 36.70 | Leptin, Mean (week 24, per-protocol set): 10.10 ng/mL | Leptin, Median (week 24, per-protocol set): 8.14 ng/mL | UACR, Mean (week 24, per-protocol set): 23.58 g/kg | UACR, Median (week 24, per-protocol set): 10.20 g/kg | UGCR, Mean (week 24, per-protocol set): 43.84 mg/mg | UGCR, Median (week 24, per-protocol set): 42.85 mg/mg | Body weight, Mean [5]: 64.38 kg | Change from baseline in FPG, ANCOVA LS mean [5]: -23.72 mg/dL | Change from baseline in FPG, Mean [5]: -23.70 mg/dL | Change from baseline in FPG, Median [5]: -20.00 mg/dL | Change from baseline in body weight, ANCOVA LS mean [5]: -3.01 kg | Change from baseline in body weight, Mean [5]: -2.83 kg | Change from baseline in body weight, Median [5]: -2.60 kg | Change from baseline in fasting C-peptide, ANCOVA LS mean [5]: -0.08 ng/mL | Change from baseline in fasting C-peptide, Mean [5]: -0.07 ng/mL | Change from baseline in fasting C-peptide, Median [5]: -0.10 ng/mL | FPG, Mean [5]: 116.82 mg/dL | FPG, Median [5]: 114.00 mg/dL | Fasting C-peptide, Mean [5]: 0.62 ng/mL | Fasting C-peptide, Median [5]: 0.56 ng/mL | Subjects achieving HbA1c target of <6.5%, (%) [5]: 17.07% | Subjects achieving HbA1c target of <7%, % [5]: 62.60% | body weight, Median [5]: 62.90 kg | Subjects achieving therapeutic glycemic response 1, % [5]: 85.37% | Subjects achieving therapeutic glycemic response 2, % [5]: 82.11% | Subjects achieving therapeutic glycemic response 3, % [5]: 74.80%
